From patent EP0290003A2, “Imidazoles” (Byk Gulden Lomberg Chemische Fabrik GmbH, priority 1987, dated 1988) come the findings set out here.

Read-outs that look alike come from different tables or passages of the source.

This test deals with modifizierten Shay-Ratte. The test is described as follows: Antiulcerogenic and secretion-inhibiting effect in the modified Shay rat (pylorus ligation + oral acetylsalicylic acid). The format is in vivo. The settings on record: for Magenschutzwirkung: Minderung des Läsionsindexes (%) / Säuresekretionshemmung: Verringerung der HCl-Sekretion (%): versus control group, 4 h after pylorus ligation; for ED50: iv, 4 h, i.v. The source says:
Prüfung der antiulcerogenen und sekretionshemmenden Wirkung an der modifizierten Shay-Ratte
In der folgenden Tabelle 1 ist der Einfluß der erfindungsgemäßen Verbindungen nach intravenöser (i. v.) Gabe auf die Läsionsbildung sowie die Säureausscheidung bei der modifizierten Shay-Ratte dargestellt.
Die Ulcusprovokation erfolgt an 24 Stunden nüchternen Ratten (weiblich, 180-200 g, 4 Tiere je Käfig auf hohem Gitterrost) durch Pylorusligatur (unter Diethylethernarkose) und orale Applikation von 100 mg/10ml/kg Acetylsalicylsäure. Die zu prüfenden Substanzen werden intravenös (1 ml/kg) unmittelbar nach der Pylorusligatur verabreicht. Der Wundverschluß wird mittels Michelklammern vorgenommen. 4 Stunden danach erfolgt die Tötung der Tiere im Etherrausch durch Atlas-Dislokation und die Resektion des Magens.
Der Magen wird längs der großen Kurvatur eröffnet und auf einer Korkplatte aufgespannt, nachdem zuvor die Menge des sezernierten Magensaftes (Volumen) und später sein HCl-Gehalt (Titration mit Natronlauge) bestimmt wird. Mit einem Stereomikroskop werden bei 10-facher Vergrößerung Anzahl und Größe (=Durch-messer) vorhandener Ulcera ermittelt. Das Produkt aus Schweregrad (gemäß nachfolgender Punkteskala) und Anzahl der Ulcera dient als individueller Läsionsindex.
Als Maß für den antiulcerogenen Effekt dient die Minderung des mittleren Lä-sionsindex jeder behandelten Gruppe gegenüber dem der Kontrollgruppe (=100 %). Die ED50 bezeichnet diejenige Dosis, die den mittleren Lösionsindex bzw. die HCl-Sektetion gegenüber der Kontrolle um 50 % mindert.

Where [1] appears, read: Rattus norvegicus, interpolated dose reducing the lesion index by 50 % versus control group, read-out: Magenschutzwirkung: ca. ED50 (µmol/kg) i.v.
The mark [2] stands for this setting: interpolated dose reducing the HCl secretion of the rat stomach by 50 % versus control group, read-out: Säuresekretionshemmung: ca. ED50 (µmol/kg) i.v.

Regarding `Cc1nc2c(OC3CCc4ccccc43)cccn2c1C` (stereo not drawn) [Beispiel 1, 8-(2,3-Dihydro-1-indenyloxy)-2,3-dimethyl-imidazo[1,2-a]pyridin], the “Magenschutzwirkung: Minderung des Läsionsindexes (%)” value is recorded as 40% (Dosis 0,1 µmol/kg i.v.); 58% (Dosis 0,3 µmol/kg i.v.); 75% (Dosis 1,0 µmol/kg i.v.); 100% (Dosis 3,0 µmol/kg i.v.); 100% (Dosis 10,0 µmol/kg i.v.). Besides, the “Säuresekretionshemmung: Verringerung der HCl-Sekretion (%)” value is on record as 19% (Dosis 0,1 µmol/kg i.v.); 21% (Dosis 0,3 µmol/kg i.v.); 40% (Dosis 1,0 µmol/kg i.v.); 62% (Dosis 3,0 µmol/kg i.v.); 78% (Dosis 10,0 µmol/kg i.v.). For the same molecule, the ED50 runs as follows: under setting [1], about 0.2 µmol/kg; under setting [2], about 1.93 µmol/kg.

Regarding `Cc1nc2c(OC3CCc4ccccc43)cccn2c1CC#N` (stereo not drawn) [Beispiel 4, 3-Cyanomethyl-8-(2,3-dihydro-1-indenyloxy)-2-methyl-imidazo[1,2-a]pyridin], the “Magenschutzwirkung: Minderung des Läsionsindexes (%)” value is reported as 47% (Dosis 0,1 µmol/kg i.v.); 38% (Dosis 0,03 µmol/kg i.v.); 64% (Dosis 0,3 µmol/kg i.v.); 86% (Dosis 1,0 µmol/kg i.v.); 100% (Dosis 3,0 µmol/kg i.v.). Moreover, the “Säuresekretionshemmung: Verringerung der HCl-Sekretion (%)” value runs as follows: (Dosis 0,1 µmol/kg i.v.) -10%; (Dosis 0,03 µmol/kg i.v.) 3%; (Dosis 0,3 µmol/kg i.v.) 26%; (Dosis 1,0 µmol/kg i.v.) 27%; (Dosis 3,0 µmol/kg i.v.) 83%. Also, the ED50 is about 0.1 µmol/kg under setting [1] and about 1.34 µmol/kg under setting [2].
